Measurements reported in patent publication US9290741B2, “Simplified methods for generating endothelial cells from human pluripotent stem cells under defined conditions” (Wisconsin Alumni Research Foundation, priority 2013, dated 2016).

How the values were obtained:
[1] = system: 19-9-11 ishcat iPSCs; assay: Flow cytometry analysis of Brachyury expression during differentiation; type: cell-based, human; conditions: 6 μM CHIR99021, in the absence of dox
Procedure: FIG. 8 Knockdown of β-catenin abolishes endothelial differentiation of hPSCs 19-9-11 ishcat iPSCs were cultured in LaSR basal medium containing 6 μM CH and/or 2 μg/ml doxycycline for 2 days. Flow cytometry analysis of Brachyury expression was performed after 2 days of differentiation.
Cells were dissociated into single cells with Accutase for 10 min and then fixed with 1% paraformaldehyde for 20 min at room temperature and stained with primary and secondary antibodies (Table 2) in PBS plus 0.1% Triton X-100 and 0.5% BSA. Data were collected on a FACSCaliber flow cytometer (Becton Dickinson) and analyzed using FlowJo.

[2] = system: 19-9-11 iPSCs; assay: Angioblast differentiation of hPSCs, flow cytometry of CD34 and CD31 at day 5; type: cell-based, human; conditions: for induction of angioblast differentiation (percentage of CD34^+CD31^+ cells): 0.6 μM CHIR98014 or 0.6 μM BIO-acetoxime 2 days in LaSR medium, then StemPro-34 3 days, no VEGF, compared with 6 μM CHIR99021
Procedure: Cells were then cultured in mTeSR1, changed daily. At day 0, cells were treated with 6-10 μM CHIR99021 (Selleckchem) for 2 days in LaSR basal medium, which consists of Advanced DMEM/F12, 2.5 mM GlutaMAX, and 60 μg/ml ascorbic acid (Sigma, A8960). […] Cells were dissociated into single cells with Accutase for 10 min and then fixed with 1% paraformaldehyde for 20 min at room temperature and stained with primary and secondary antibodies (Table 2) in PBS plus 0.1% Triton X-100 and 0.5% BSA. Data were collected on a FACSCaliber flow cytometer (Becton Dickinson) and analyzed using FlowJo.

[3] = system: H9 cells; assay: Angioblast differentiation of hPSCs with PD0325901 addition, flow cytometry of CD34 and CD31 at day 5; type: cell-based, human; conditions: 1 μM PD0325901 added during differentiation induced with 6 μM CHIR99021
Procedure: FIG. 2 CD34^+CD31^+ angioblast differentiation induced by Gsk3 inhibitors in hPSCs is β-catenin dependent. […] At day 5, the percentage of CD34^+CD31^+ cells in culture was assessed by flow cytometry. (B) 19-9-11 iscramble and 19-9-11 […] cultured in mTeSR1 containing 2 μg/ml doxycycline. After 3 days, mRNA was collected and β-catenin expression evaluated by qPCR. Error bars represent the s.e.m. of 3 biological replicates. # […] versus iscramble; […] cultured in LaSR medium containing 6 μM CHIR99021 for 2 days before exposure to StemPro-34 medium for 3 days, with 2 μg/ml dox addition at the indicated times. 5 days after initiation of differentiation, cells were analyzed for CD34 and CD31 expression by flow cytometry. Error bars represent the s.e.m. of three independent experiments. […] hPSCs maintained on a MatrigelTM-coated surface in mTeSR1 were dissociated into single cells with Accutase (Life Technologies) at 37° C. for 5 min and then seeded onto a MatrigelTM-coated cell culture dish at 50,000 cell/cm^2 in mTeSR1 supplemented with 5 μM ROCK inhibitor Y-27632 (Selleckchem)(day -3) for 24 hours. Cells were then cultured in mTeSR1, changed daily. […] Data were collected on a FACSCaliber flow cytometer (Becton Dickinson) and analyzed using FlowJo.

[4] = system: hPSC-derived endothelial cells; assay: Flow cytometry analysis of ICAM-1 surface expression after TNF-α treatment; type: cell-based, human; conditions: 10 ng/mL TNF-α for 16 hours versus unstimulated cells
Description: FIG. 6 Characterization of endothelial cells derived from hPSCs (A) 19-9-11 iPSCs were differentiated as illustrated in FIG. 3A using LaSR basal medium. At day 5, CD34^+ cells were enriched and cultured in endothelial medium on laminin-coated plates. At different time points, the cell numbers were counted. (B-D) the purified day 60 endothelial cells were immunostained with (B) VE-cadherin and CD31, and tested for (C) tube-forming ability upon VEGF treatment and the ability to (D) uptake acetylated low-density lipoprotein (AcLDL). (E) Flow cytometry analysis of surface protein expression of ICAM-1 of untreated cells or cells treated with 10 ng/mL TNF-α for 16 hours. Error bars represent the s.e.m. of three independent experiments. (F-G) Barrier phenotype of the hPSC-derived endothelial cells. […] Barrier function was assessed by measuring transendothelial electrical resistance (TEER) 48 hours after seeding. […] (F) Transendothelial electrical resistance (TEER) was measured as a function of time, and normalized to the initial TEER value (36.7±4.3 Ωcm^2. (G) TEER and fluorescent dextran permeability were measured 24 hours after plating. Error bars represent the s.e.m. of three biological samples. ** p<0.005, VEGF (or oME) versus control; t test. […]

[5] = system: hPSC-derived endothelial cells; assay: Monolayer integrity: 40-kDa FITC-dextran permeability; type: cell-based, human; conditions: 100 ng/mL VEGF or 10 μM oME, 24 hr of treatment, versus control
[6] = system: hPSC-derived endothelial cells; assay: Monolayer integrity: transendothelial electrical resistance (TEER); type: cell-based, human; conditions: 100 ng/mL VEGF or 10 μM oME, versus control
[7] = system: hPSC-derived endothelial cells; conditions: 50 ng/ml VEGF, 24 h; day 60 endothelial cells
Procedure: To assess the formation of capillary structures, 1×10^5 endothelial cells in 0.4 ml EGM-2 medium (Lonza) supplemented with 50 ng/ml VEGF (R&D Systems) were plated into one well of 24-well tissue culture plate pre-coated with 250 μl Matrigel™ (BD Bioscience). Tube formation was observed by light microscopy after 24 h of incubation.

Cc1c[nH]c(-c2cnc(NCCNc3ccc(C#N)cn3)nc2-c2ccc(Cl)cc2Cl)n1 [CHIR99021]
Brachyury expressing cells by day 2 [1]: virtually pure population | CD31^+CD34^+ angioblasts generated ([2]; 6-10 μM CHIR99021 2 days, then 3 days StemPro-34 without VEGF, day 5): 25% | CD34^+CD31^+ cells generated ([2]; CHIR99021 (6 μM) 2 days in LaSR basal medium, then 3 days StemPro-34 with or without VEGF, day 5): more than 20% | CD34^+CD31^+ cells produced ([2]; LaSR basal medium, CHIR99021 2 days then 3 days without, seeding density 50,000 cells per cm2 at day -3): 55% | CD34^+CD31^+ cells in 5 days ([2]; single basal medium: LaSR basal medium with CHIR99021 2 days, then 3 days same medium without): 25% | CD34^+CD31^+ cells in 5 days ([2]; single basal medium: RPMI/B27 or EC medium containing serum, with CHIR99021 2 days, then 3 days without): not supporting differentiation to any detectable CD34^+CD31^+ cells

O=C(NOC[C@H](O)CO)c1ccc(F)c(F)c1Nc1ccc(I)cc1F [PD0325901]
effect on CD34^+CD31^+ cell differentiation [3]: substantially diminished

CHIR98014
induction of angioblast differentiation (percentage of CD34^+CD31^+ cells) [2]: effectively induced angioblast differentiation to a similar extent as CHIR99021

BIO-acetoxime
induction of angioblast differentiation (percentage of CD34^+CD31^+ cells) [2]: effectively induced angioblast differentiation to a similar extent as CHIR99021

TNFα
expression of ICAM1 [4]: greatly increased

CO[C@@H]1[C@@H]2OP(=O)(O)OC[C@H]2O[C@H]1n1c(Sc2ccc(Cl)cc2)nc2c(N)ncnc21 [8-pCPT-2′O-Me-cAMP, 8-(4-chlorophenylthio)-2′-O-Me-cAMP]
dextran permeability (40 kD) [5]: decreased | transendothelial electrical resistance (TEER) [6]: increased

VEGF
dextran permeability (40 kD) [5]: increase | transendothelial electrical resistance (TEER) [6]: sustained decrease | vascular tube formation in Matrigel matrix [7]: formed vascular tubes | effect of VEGF treatment on yield of CD34^+CD31^+ cells ([2]; VEGF in StemPro-34 for 3 days after CHIR99021, day 5): did not significantly increase
